Assay results as given in patent publication US8715947B2, “Inhibition of the interaction between 5T4 oncofoetal glycoproteins and CXC chemokine receptors as a method of identifying chemotaxis inhibitors” (Cancer Research Technology Limited, priority 2009, dated 2014).
Entries after “also recorded” stand apart in the source; their conditions may differ.

Key:
ERK phosphorylation = ERK phosphorylation in MEFs by Western blot; type: cell-based, mouse; details: 50 μM PD98059, 50 μM LY294002 or 10 μM AMD3100; for increase in ERK phosphorylation in response to CXCL12 stimulation: WT MEFs; for increase in ERK1/2 phosphorylation in response to PMA stimulation: WT and 5T4KO MEFs
Procedure: Western blots were carried out using a BioRad Mini-PROTEAN Tetra (Thermo Fisher) supplemented with protease and phosphatase inhibitor cocktails (Thermo Fisher). RIPA buffer (50 mM Tris-Cl pH 7.4, 150 mM NaCl, 1% NP40, 0.25% Na-deoxycholate, 1 mM PMSF and protease and phosphatase inhibitor cocktail) was used as an alternative method of cell lysis. […] Other primary antibodies used were ERK1/2, phospho-ERK1/2 (Thr202/Tyr204/Thr185/Tyr187), AKT and phospho-AKT (Thr308) (Cell Signalling Technology) at 1:1000. Following secondary antibody labelling using appropriate HRP conjugates (AbSerotec) hybridizing bands were detected using SuperSignal West Dura (Thermo Fischer). For immunoprecipitation experiments cells were lysed in M-PER (Thermo Fischer) according to manufacturer's instructions and enriched for the membrane fraction on a 45% sucrose gradient by ultracentrifugation. 100 μg of the membrane enriched fraction was incubated with 1 μg of rabbit polyclonal anti-CXCR4 (Abcam) or 1 μg of mouse anti-monoclonal h5T4 or appropriate irrelevant control antibodies for 1 hour at room temperature. A 50% slurry of Protein G beads (Amersham) was then added and incubated for 1 hour at room temperature. Beads were subsequently washed 7 times with 1 ml PBS+0.1% Triton X-100, and then resuspended in PAGE loading buffer (Thermo Fisher), boiled for 3 minutes and loaded onto 4-15% gradient gel and processed as described for Westerns above. Gels were run in Lamelli buffer (25 mM Tris-base, 192 mM glycine, 0.1% SDS). Antibodies to CXCR7 were used in western blot analysis of PAGE separated MEF cells solubilised 1%.

WT-ES cells = assay: CXCL12 chemotaxis of WT-ES cells in transwell chambers; type: cell-based, mouse
Procedure: (§1) Chemotaxis was assessed using transwell chambers as previously described for cellular motility assays [16; the contents of which are expressly incorporated herein in their entirety] in the presence or absence of the chemokine CXCL12 (R&D systems), at a concentration of 10 ng/well for ES cell experiments, and 30 ng/well for all others. Inhibition studies were performed in the presence of 10 μM Diprotin A (Sigma) for CD26, 10 μM AMD3100 (Sigma) for CXCR4 or 10 μg/well mouse anti-CXCL12 (R&D systems) or Pertussis Toxin (Sigma, 10 ng/ml). For m5T4 specific mAb inhibition of chemotaxis or control Ig; antibodies were premixed with 50,000 differentiating WT-ES or MEF cells/ml and added to the transwell chambers as above. CXCL16 (R&D 10 ng/ml), the ligand for CXCR6 and CXCL10 (R&D 100 ng/ml), a ligand for CXCR3 were used to assess chemotaxis in undifferentiated and/or differentiating WT and 5T4KO ES cells.

CXCR4 [1] = biological target: T1, CXCR4 (Mus musculus, UniProt P70658); details: in vivo; cited from earlier work
CXCR4 [2] = biological target: T1, CXCR4; details: in vivo; cited from earlier work; remark: listed apart in the source
[3] = system: primary murine embryonic fibroblasts; assay: Immunofluorescence pattern of 5T4 and CXCR4 in primary murine embryonic fibroblasts after cytoskeleton, Golgi or microtubule disruption; type: cell-based, mouse; details: for cell surface expression and colocalisation of 5T4 and CXCR4 versus untreated controls: 985 nM cytochalasin D or 3.6 μM brefeldin A; for cell surface expression and colocalisation of 5T4 and CXCR4 after washout: one hour after washout
Procedure: Immunofluorescence In Situ. These studies were performed using methods described previously (39), with cells grown on 24 well glass bottomed plates, (Iwaki, supplied through Jencons) for ES cells the wells were pre coated with 0.1% gelatine. Primary antibodies used were rabbit anti-CXCR4, (5 μg/ml) (Abcam), rat-anti-DPIV (5 μg/ml), (R&D), mAb anti-human 5T4 (10 μg/ml,), mAb anti-m5T4, 9A7 (20 μg/ml), B3F1 (5 μg/ml), rabbit anti-CXCR7 (AbCam, 5 μg/ml), rat mAb anti-CXCR6 (R&D, 5 μg/ml), rat mAb anti-CXCR3 (R&D, 5 μg/ml), Alexa Fluor 488 mouse anti-myc tag clone 4A6 (Millipore) or appropriate isotype controls. Secondary detection was performed by incubation for 1 hour at 4° C. with species or IgG sub-class specific Alexa Fluor conjugated secondary antibodies (Invitrogen) (6 μg/ml) as appropriate for multiple antigen detection. Labelling of the endoplasmic reticulum and Golgi apparatus was performed using NBD C6-Ceramide or Endotracker, (Invitrogen, Molecular Probes) as per manufacturer's instructions. […]. F-Actin was labeled using Phaloidin-633 Alexa Fluor (Invitrogen). Microtubules were visualised by murine IgG recognizing β-tubulin (Cancer Research UK). Cells were imaged on a Zeiss Axiovert 200M with a plan-fluar ×100 1.45NA objective lens and a Roper Cascade EMCCD 512B camera. Illumination was achieved using a 300W Xenon system, (Sutter) which presented the system as an even field of illumination in addition to the appropriate neutral density and Schott filters to modulate the light source. Wavelength selection was achieved using external filter wheels, (Applied Scientific Instrumentation) and the ETSedat set, (Chroma). Data sets were captured with an axial resolution of 100 nm using the MS-2000 stage (Applied Scientific Instrumentation) and a lateral resolution of 0.1645 microns per pixel. The system was full controlled and automated via the FRAP-AI software, (MAG Biosystems/Metamorph). All of the data sets were deconvolved using Huygens (Scientific Volume Imaging) after which visualization and analysis was carried out using Imaris, (Bitplane). Colocalisation was assessed by analysis of the deconvolved images utilising ImarisColoc software (Bitplane) in manual mode. A 2D scatter plot showing intensity pairs in the image was thresholded to include only colocalized points in the three dimensional volume.
Primary murine embryonic fibroblasts were assessed for their pattern of 5T4 and CXCR4 expression by immunofluorescence following disruption of the cytoskeleton, Golgi or microtubules for 24 hours with cytochalasin D, brefeldin A or nocodazole respectively. Cytoskeleton, Golgi and microtubule disruption was determined by immunofluorescence with AlexaFluor 633 conjugated phalloidin, BODIPY labeled NBD C6 ceramide and anti-tubulin antibodies respectively. […] Clearly plasma membrane detection of co-localized 5T4/CXCR4 molecules is dependent on microtubules and the molecules are not obligatorily associated at the Golgi.

5T4KO ES cells = assay: CXCL12 chemotaxis of 5T4KO ES cells in transwell chambers; type: cell-based, mouse; details: undifferentiated or differentiating 5T4KO ES cells; 10 μM
Procedure: as §1

WT and 5T4KO ES cells = assay: CXCL10 chemotaxis of ES cells; type: cell-based, mouse; details: 100 ng/well CXCL10
CAOV3 = assay: CXCL12 chemotaxis of CAOV3 ovarian carcinoma cells; type: cell-based, human; details: 10 μM diprotin A, 10 ng/well CXCL12
Procedure: as §1, with “at a concentration of 10 ng/well for ES cell experiments, and 30 ng/well for all others.” left out

JEG-3 = assay: CXCL12 chemotaxis of JEG-3 choriocarcinoma cells; type: cell-based, human; details: 10 μM diprotin A, 30 ng/well CXCL12
Procedure: as §1

SKOV3 = assay: CXCL12 chemotaxis of SKOV3 ovarian carcinoma cells; type: cell-based, human; details: 10 μM diprotin A, 10 ng/well CXCL12
Procedure: as §1, with “at a concentration of 10 ng/well for ES cell experiments, and 30 ng/well for all others.” left out
A series of 5T4 constructs were built for this study and cloned into pCMVα, and the retroviral vector SFβ91 [32] that we had previously inserted the cDNA cassette eGFP under the transcriptional control of an IRES (Clonetech). […] A multiplicity of 30 infectious units per cell led to 100% of cells expressing m5T4 or h5T4 or GFP at 48 hours as assessed by FACS and when other biological assessments were made. […] After 3 days, GFP positive cells were FACS sorted and assessed for 5T4 expression and chemotaxis to CXCL12.

T1 sequence (P70658 whole entry): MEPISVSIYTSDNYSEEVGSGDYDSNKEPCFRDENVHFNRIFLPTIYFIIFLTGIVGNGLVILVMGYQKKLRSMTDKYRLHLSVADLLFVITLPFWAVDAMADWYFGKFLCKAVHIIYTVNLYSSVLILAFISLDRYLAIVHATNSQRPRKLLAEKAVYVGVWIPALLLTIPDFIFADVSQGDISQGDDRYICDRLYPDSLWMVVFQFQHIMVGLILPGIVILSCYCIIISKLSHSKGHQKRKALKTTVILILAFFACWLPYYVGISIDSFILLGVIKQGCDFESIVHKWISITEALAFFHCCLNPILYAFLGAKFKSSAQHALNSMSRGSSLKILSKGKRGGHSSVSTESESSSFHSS

With `c1cc(CN2CCCNCCNCCCNCC2)ccc1CN1CCCNCCNCCCNCC1` [AMD3100] the “increase in ERK phosphorylation in response to CXCL12 stimulation” value (ERK phosphorylation) was “prevented”, the “increase in ERK1/2 phosphorylation in response to PMA stimulation” value (ERK phosphorylation) was “independent of both CXCR4 and PI3K activity” and the “chemotaxis to CXCL12 with CXCR4 inhibitor” value (WT-ES cells; differentiating WT-ES cells, 2 hr pre-incubation with 10 μM) was “blocked”. For the same compound, the “chemotaxis to CXCL12 with CXCR4 inhibitor” value (WT-ES cells; undifferentiated WT-ES cells, 10 μM) was “no effect” and the “allergic lung inflammation and airway hyperreactivity” value (CXCR4 [1]) was “attenuates”.

In the case of `c1ccc(CNCc2ccc(CN3CCCNCCNCCCNCC3)cc2)nc1` [AMD3465], the pulmonary granuloma formation (CXCR4 [2]) is given as “eliminates”.

With `COc1cccc(-c2cc(=O)c3ccccc3o2)c1N` [PD98059] the “increase in ERK phosphorylation in response to CXCL12 stimulation” value (ERK phosphorylation) was “prevented” and the “increase in ERK1/2 phosphorylation in response to PMA stimulation” value (ERK phosphorylation) was “blocked by MEK1 inhibition”.

For `C[C@H]1CCC/C=C/[C@@H]2C[C@H](O)C[C@H]2[C@H](O)/C=C/C(=O)O1` [brefeldin A], the “cell surface expression and colocalisation of 5T4 and CXCR4 versus untreated controls” value ([3]; 24 hours) was “reduced levels of cell surface expression of both antigens” and the “cell surface expression and colocalisation of 5T4 and CXCR4 after washout” value [3] was “returned to normal levels; also recorded: returned to levels with marked cell surface colocalisation similar to that of controls”.

In the case of `C=C1[C@@H](C)[C@H]2[C@H](Cc3ccccc3)NC(=O)[C@]23[C@H](OC(C)=O)/C=C/[C@@](C)(O)C(=O)[C@@H](C)C/C=C/[C@H]3[C@@H]1O` [cytochalasin D], the “polymerized actin filaments (phalloidin immunofluorescence)” value ([3]; 24 hours treatment, 985 nM cytochalasin D) was “no polymerized actin filaments were detectable” and the “cell surface expression and colocalisation of 5T4 and CXCR4 versus untreated controls” value ([3]; 24 hours) was “no detectable differences”.

For `CC[C@H](C)[C@H](N)C(=O)N1CCC[C@H]1C(=O)N[C@H](C(=O)O)[C@@H](C)CC` [diprotin A], the “chemotactic response to CXCL12 with CD26 inhibitor” value (5T4KO ES cells) was “did not restore chemotactic behaviour; also recorded: no change in chemotactic response”, the “chemotaxis towards CXCL10 with CD26 inhibitor” value (WT and 5T4KO ES cells; undifferentiated ES cells, 10 μM) was “acquire increased chemotaxis towards CXCL10” and the “CXCL12 chemotaxis with CD26 inhibitor” value (CAOV3) was “further enhanced”. The “CXCL12-mediated chemotaxis with CD26 inhibitor” value (JEG-3) was “only evident in the presence” and the “CXCL12 chemotaxis with CD26 inhibitor” value (SKOV3) was “further enhanced”.

With `COC(=O)Nc1nc2ccc(C(=O)c3cccs3)cc2[nH]1` [nocodazole] the “cell surface detection of 5T4” value ([3]; 24 hours, 332 nM nocodazole) was “remained detectable at the cell surface albeit at a diminished level; also recorded: still detectable at the cell surface albeit at a diminished level”, the “cell surface detection of CXCR4” value ([3]; 24 hours, 332 nM nocodazole) was “no cell surface detection of CXCR4” and the “cell surface expression and colocalisation of 5T4 and CXCR4 after washout” value [3] was “both antigens were detectable at the cell surface with marked colocalisation similar to controls”.

In the case of pertussis toxin, the “CXCL10 related chemotaxis with Gi protein inhibitor” value (WT and 5T4KO ES cells; WT and KO differentiating ES cells, 10 ng/ml) was “inhibits CXCL10 related chemotaxis”.
